Measurements: ChEMBL document CHEMBL1201862, “PubChem BioAssay data set” (2004)
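The compound was tested at five concentrations on cells cultured in 96-well plates, with a 48-hour exposure period. The concentration for 50% growth inhibition is given as GI50.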 Calls of active or inactive are those of the source. Cut-off read from the data, not from the text of the source: active = GI50 up to about 1.1 µM and inactive = higher.

Tests used:
Experiment in all cases: NCI-60 cell line screen, 48 h
SN12C = test system: SN12C
CCRF-CEM = test system: CCRF-CEM
786-0 = test system: 786-0
NCI-H226 = test system: NCI-H226
HOP-92 = test system: HOP-92
A498 = test system: A498
SR = test system: SR
HCT-116 = test system: HCT-116
UACC-257 = test system: UACC-257
HCC 2998 = test system: HCC 2998
TK-10 = test system: TK-10
SF-268 = test system: SF-268
M14 = test system: M14
K562 = test system: K562
U-251 = test system: U-251
SK-MEL-5 = test system: SK-MEL-5

Structure (SMILES)	GI50 (SN12C)	GI50 (CCRF-CEM)	GI50 (786-0)	GI50 (NCI-H226)	GI50 (HOP-92)	GI50 (A498)	GI50 (SR)	GI50 (HCT-116)	GI50 (UACC-257)	GI50 (HCC 2998)	GI50 (TK-10)	GI50 (SF-268)	GI50 (M14)	GI50 (K562)	GI50 (U-251)	GI50 (SK-MEL-5)
CSC(=N)N1N=C2c3ccccc3CC[C@@H]2[C@@H]1c1ccccc1	16.4 µM (inactive)	19.3 µM (inactive)	12.9 µM (inactive)	9.73 µM (inactive)	5.16 µM (inactive)	16.7 µM (inactive)	10.4 µM (inactive)	4.8 µM (inactive)	18.5 µM (inactive)	15 µM (inactive)	17 µM (inactive)	22 µM (inactive)	13.2 µM (inactive)	6.03 µM (inactive)	17.1 µM (inactive)	–
N#CC(C#N)=C1NC(=O)CC(=O)N1	> 100 µM (inactive)	> 100 µM (inactive)	> 100 µM (inactive)	> 100 µM (inactive)	> 100 µM (inactive)	> 100 µM (inactive)	> 100 µM (inactive)	> 100 µM (inactive)	> 100 µM (inactive)	> 100 µM (inactive)	> 100 µM (inactive)	> 100 µM (inactive)	> 100 µM (inactive)	> 100 µM (inactive)	> 100 µM (inactive)	> 100 µM (inactive)
COc1ccc(/C=C/C(C(=O)O)C(=O)O)cc1	51.3 µM (inactive)	26.2 µM (inactive)	> 100 µM (inactive)	> 100 µM (inactive)	72.1 µM (inactive)	–	34.8 µM (inactive)	> 100 µM (inactive)	97.9 µM (inactive)	> 100 µM (inactive)	> 100 µM (inactive)	67.5 µM (inactive)	75.7 µM (inactive)	32.4 µM (inactive)	> 100 µM (inactive)	76.6 µM (inactive)
C=C1CC(CCCl)(c2ccccc2)OC1=O (configuration not stated)	31.5 µM (inactive)	20 µM (inactive)	17.4 µM (inactive)	> 100 µM (inactive)	15.7 µM (inactive)	> 100 µM (inactive)	20.1 µM (inactive)	22.9 µM (inactive)	44.2 µM (inactive)	35.7 µM (inactive)	> 47.5 µM (inactive)	> 67 µM (inactive)	19.5 µM (inactive)	33.3 µM (inactive)	> 59.3 µM (inactive)	> 100 µM (inactive)
NNC(=O)N/N=C1\CNC(=O)C(=O)C1c1nc2ccccc2s1 (configuration not stated)	> 100 µM (inactive)	> 100 µM (inactive)	> 100 µM (inactive)	> 100 µM (inactive)	> 100 µM (inactive)	> 100 µM (inactive)	–	> 100 µM (inactive)	> 100 µM (inactive)	> 100 µM (inactive)	> 100 µM (inactive)	> 100 µM (inactive)	> 100 µM (inactive)	> 100 µM (inactive)	> 100 µM (inactive)	> 100 µM (inactive)
C[C@@H](CO)OCOCc1ccccc1	> 100 µM (inactive)	> 100 µM (inactive)	> 100 µM (inactive)	–	> 100 µM (inactive)	> 100 µM (inactive)	–	> 100 µM (inactive)	> 100 µM (inactive)	> 100 µM (inactive)	–	> 100 µM (inactive)	> 100 µM (inactive)	> 100 µM (inactive)	> 100 µM (inactive)	> 100 µM (inactive)
O=C(Nc1cccc(O)c1)C(=O)C(C(=O)c1ccc(Cl)c(Cl)c1)C1OC(=O)c2ccccc21 (configuration not stated)	18.6 µM (inactive)	12.5 µM (inactive)	13.6 µM (inactive)	3.46 µM (inactive)	22.5 µM (inactive)	19.5 µM (inactive)	4.44 µM (inactive)	25.7 µM (inactive)	20.6 µM (inactive)	15.5 µM (inactive)	23.8 µM (inactive)	10.4 µM (inactive)	20.2 µM (inactive)	15 µM (inactive)	8.02 µM (inactive)	19.7 µM (inactive)
Cc1ccc(S(=O)(=O)OC(C=O)C(O)C(O)COC(c2ccccc2)(c2ccccc2)c2ccccc2)cc1 (configuration not stated)	15.5 µM (inactive)	–	14.1 µM (inactive)	14.9 µM (inactive)	–	18 µM (inactive)	5.43 µM (inactive)	16.4 µM (inactive)	13.2 µM (inactive)	12 µM (inactive)	–	19.6 µM (inactive)	16.1 µM (inactive)	16.9 µM (inactive)	14.4 µM (inactive)	15.4 µM (inactive)
C[Si]12OCCCN(CCO1)CCO2	> 100 µM (inactive)	> 100 µM (inactive)	> 100 µM (inactive)	–	> 100 µM (inactive)	> 100 µM (inactive)	> 100 µM (inactive)	> 100 µM (inactive)	> 100 µM (inactive)	> 100 µM (inactive)	> 100 µM (inactive)	> 100 µM (inactive)	–	> 100 µM (inactive)	> 100 µM (inactive)	> 100 µM (inactive)
Cc1ccc(NC(=O)CC(=O)n2nc(-c3ccccc3)c(/N=N/c3ccc(Cl)cc3)c2-c2ccccc2)cc1	31.6 µM (inactive)	24.4 µM (inactive)	21.1 µM (inactive)	> 100 µM (inactive)	39.7 µM (inactive)	> 100 µM (inactive)	–	19.5 µM (inactive)	33.8 µM (inactive)	84.5 µM (inactive)	22.3 µM (inactive)	> 100 µM (inactive)	> 100 µM (inactive)	13.5 µM (inactive)	–	> 100 µM (inactive)
Oc1cccc2c1NC1=C(CCC/C1=C\c1ccccc1)C2	> 10 µM (inactive)	37.3 µM (inactive)	> 100 µM (inactive)	> 100 µM (inactive)	–	–	50.1 µM (inactive)	82.6 µM (inactive)	57.9 µM (inactive)	49.3 µM (inactive)	> 100 µM (inactive)	> 100 µM (inactive)	33.5 µM (inactive)	59.6 µM (inactive)	69 µM (inactive)	> 100 µM (inactive)
Cc1c(C(=O)C/C(=N/NC(=O)C[n+]2ccccc2)C(=O)Nc2ccccc2)[n+]([O-])c2ccccc2[n+]1[O-]	> 100 µM (inactive)	> 100 µM (inactive)	> 100 µM (inactive)	> 100 µM (inactive)	–	> 100 µM (inactive)	87.5 µM (inactive)	> 100 µM (inactive)	> 100 µM (inactive)	> 100 µM (inactive)	> 100 µM (inactive)	> 100 µM (inactive)	> 100 µM (inactive)	> 100 µM (inactive)	> 100 µM (inactive)	> 100 µM (inactive)
C#C[C@]1(O)CCCC2=CC(=O)CC[C@@]21C	> 100 µM (inactive)	> 100 µM (inactive)	> 100 µM (inactive)	> 100 µM (inactive)	> 100 µM (inactive)	–	> 100 µM (inactive)	–	> 100 µM (inactive)	> 100 µM (inactive)	> 100 µM (inactive)	> 100 µM (inactive)	> 100 µM (inactive)	> 100 µM (inactive)	> 100 µM (inactive)	> 100 µM (inactive)
Cc1cccc(C2=C/C(=C(\SS/C(C(=O)c3ccc(OCC(=O)O)c(Cl)c3Cl)=C3\C=C(c4cccc(C)c4)SS3)C(=O)c3ccc(OCC(=O)O)c(Cl)c3Cl)SS2)c1	14.8 µM (inactive)	4.71 µM (inactive)	20 µM (inactive)	12.1 µM (inactive)	5.45 µM (inactive)	24.4 µM (inactive)	–	10.2 µM (inactive)	34.4 µM (inactive)	31 µM (inactive)	27.9 µM (inactive)	10.8 µM (inactive)	22.1 µM (inactive)	4.31 µM (inactive)	4.51 µM (inactive)	15.9 µM (inactive)
CCOC(=O)/C(=C/c1ccccc1Br)P(=O)(OCC)OCC	2.06 µM (inactive)	0.738 µM (active)	1.34 µM (inactive)	3.07 µM (inactive)	1.46 µM (inactive)	3.19 µM (inactive)	–	3.15 µM (inactive)	–	1.78 µM (inactive)	3.23 µM (inactive)	2.9 µM (inactive)	1.54 µM (inactive)	0.298 µM (active)	1.59 µM (inactive)	1.63 µM (inactive)
Cc1cc2c(=O)cc(-c3ccncc3)oc2c(C(=O)O)c1C	> 100 µM (inactive)	> 100 µM (inactive)	> 100 µM (inactive)	> 100 µM (inactive)	> 100 µM (inactive)	–	> 100 µM (inactive)	> 100 µM (inactive)	> 100 µM (inactive)	> 100 µM (inactive)	> 100 µM (inactive)	> 100 µM (inactive)	–	–	> 100 µM (inactive)	–
Cn1c(=O)c2c3ccccc3c(C(=O)c3ccccc3)n2c2ccccc21	9.33 µM (inactive)	9.82 µM (inactive)	10.3 µM (inactive)	> 56.1 µM (inactive)	3.84 µM (inactive)	7.31 µM (inactive)	2.45 µM (inactive)	4.12 µM (inactive)	> 100 µM (inactive)	–	> 43.7 µM (inactive)	20 µM (inactive)	8.55 µM (inactive)	4.08 µM (inactive)	18.9 µM (inactive)	6.08 µM (inactive)
O=C(Nc1cccc(Cl)c1)c1cc2cc(/N=N/c3ccc(Br)cc3)ccc2oc1=O	32.1 µM (inactive)	–	25.5 µM (inactive)	–	37.8 µM (inactive)	> 100 µM (inactive)	–	37.2 µM (inactive)	33.3 µM (inactive)	25.8 µM (inactive)	51.1 µM (inactive)	14.6 µM (inactive)	22.3 µM (inactive)	6.19 µM (inactive)	26.7 µM (inactive)	36.8 µM (inactive)
CC(=O)N1C(=O)C(=O)c2cc(Cl)ccc21	> 100 µM (inactive)	> 10 µM (inactive)	> 100 µM (inactive)	> 100 µM (inactive)	–	> 100 µM (inactive)	> 100 µM (inactive)	–	–	> 100 µM (inactive)	> 100 µM (inactive)	> 100 µM (inactive)	> 100 µM (inactive)	> 100 µM (inactive)	> 100 µM (inactive)	> 100 µM (inactive)
